Here are results for two compounds from patent publication US20060099170A1, “Compositions for inducing increased levels of beta-chemokines and methods of use therefor” (priority 2002, published 2006).

Like-named read-outs stand apart in the source and are kept apart here.

The subject of series [1] is resting CD4 T cells. The series is described as follows: Cell viability / proliferation of patients' CD4 T cell cultures (trypan blue). It is filed as cell-based, human. Conditions: 5 μg/ml VE, days 7 or 14; data not shown. As to the method: (§1) Blood (50 ml) was drawn from 10 patients on antiretroviral therapy, whose viral load were <400 copies/ml and whose CD4 counts were >300/μl. Resting CD4 T cells were purified by negative selection using antibody-labeled magnetic beads (Dynal, Lake Success, N.Y.). Purified cells were activated by co-culture with γ-irradiated PBMCs from normal donors in the presence of 1 μg/ml anti-CD3 antibody (Coulter, Miami, Fla.) and 100 units/ml rhIL-2 (Roche, Indianapolis, Ind.). Cultures were set up in the absence or continuous presence of 5 μg/ml of VE (Vitamin E succinate, Sigma, St. Louis, Mo.), with medium replenishment every 3 or 4 days. Cultures were maintained for 14 days. Virus production was monitored by measuring p24 antigen (NEN, Boston, Mass.) in the culture supernatants on days 7 and 14. Cell viability was measured by trypan blue staining.

Series [2] deals with HIV-1. The series is described as follows: HIV-1 production upon activation of patients' resting CD4 T cells (p24 ELISA). It is filed as cell-based. The following applies: 5 μg/ml VE. The method, then:
HIV-1 gene expression on latently infected resting T cells is dependent on host transcriptional factors, such as NF-κB, that are induced on activated cells. In the present study we have evaluated the in vitro effect of adding Vitamin E (VE) to cultures of patients' resting CD4 T cells under conditions of cellular activation that promote virus expression.
as §1
(In general: An ELISA detects its analyte on a solid surface through an enzyme-linked reagent.)

Series [3] relates to activated PBMCs. Put plainly: β-chemokine levels in activated PBMCs cultured with Vitamin E. It is filed as cell-based, human. The following applies: day 6 after addition of Vitamin E, IL-2, FIG. 12. The method, then:
B-chemokines levels were measured in activated PBMCs cuftured in the presence of Vitamin E, an antioxidant reported to induce G1 cycle arrest. PBMCs from a healthy donor were activated under the presence of the indicated stimuli for 72 h. Activated cells were cultured in the presence of IL-2 and Vitamin E. Supernatants were evaluated for β-chemokine content on day 6 after addition of Vitamin E. Cell viability was measured by MTT assay.

For series [4] the following is noted: renal transplant recipients, cited from earlier work.
Series [5] deals with MDMs. The series is described as follows: Cell viability of MDMs (MTT assay). It is filed as cell-based, human. The following applies: end of experiment (day 14). As to the method: (§2) Cultures of peripheral blood mononuclear cells (PBMCs) and monocyte-derived macrophages (MDMs) were performed on normal donors as described (Poli, et al. 1993, Perno, et al., 1993). PBMCs were maintained in the presence of 100 units/ml rhIL-2 (Roche Molecular Biochemicals). Cell viability was determined by Trypan blue staining or by the MTT assay (Roche Molecular Biochemicals). RAPA was purchased from Calbiochem. The CCR5 antagonist TAK-779 was obtained from the National Institutes of Health AIDS Research and Reference Reagent Program (Rockville, Md.). CCR5 surface expression was measured on PBMCs cultured in the presence of IL-2 for 7-10 days. Staining was done as described (Lane, et al. 1999), but using CCR5 mAb 182 (R & D Systems). Background staining was determined by adding an isotype-matched control (IgG2b, R&D Systems) instead of the anti-CCR5 mAb. Data were acquired by using a FACS Calibur flow cytometer (BD Biosciences) and analyzed by using FLOWJO (Tree Star, San Carlos, Calif.).
(§3) On day 5, cells were infected with HIV-1 ADA. Infected cells were cultured in the presence of RAPA for an additional 14 days. Virus production was measured on the culture supernatants on days 7, 10, and 14 after infection.
On the technique in general: Tetrazolium dyes change colour on reduction, which living cells bring about.

Series [6] deals with PBMCs. Put plainly: PBMC proliferation and viability (MTT assay). As to the method:
as §2
Donor PBMCs were cultured in the presence of IL-2 and RAPA (10-fold serial dilutions, from 10^4 to 0.01 nM).

Series [7] has as its system HIV-1 ADA. Put plainly: Antiviral activity of RAPA in monocyte-derived macrophages (RT assay). It is filed as cell-based. As to the method: as §2
(§4) For infection of PBMCs, fresh donor PBMCs were cultured for 7 days in medium containing IL-2. On day 7, cells were exposed to the virus for 3 h. Nonadsorbed virus was removed by washing cells with PBS three times. Infected cells were cultured in IL-2 medium. Infection of MDMs was carried out as described before (Pemo, et al. 1993). Unless otherwise indicated, PBMCs were infected by using a moi of 0.001, and monocyte-derived macrophages (MDMs) were infected by using a moi of 0.002. Virus growth was monitored in culture supernatants by measuring p24 antigen levels by ELISA (NEN) or by measuring viral RT activity in an RT assay (Willey, et al., 1988).
as §3
In the above-described experiment, monocytes had been pretreated with RAPA during the 5-day differentiation period. To control for the possible interference of RAPA with the process of monocyte differentiation, a new infection experiment in which RAPA was not present during the 5-day monocyte differentiation period was designed. To this end, fresh monocytes were cultured for 5 days in the absence of RAPA. On day 5, cells were infected with HIV-1 ADA and then exposed to RAPA.

The subject of series [8] is PBMCs. Put plainly: β-chemokine levels (ELISA) in supernatants of IL-2 PBMC cultures with RAPA. It is filed as cell-based, human. The method, then: RAPA was purchased from Calbiochem.
Levels of the β-chemokines MIP-1α, MIP-1β and RANTES were measured in culture supernatants by using ELISA kits (R & D Systems).
We next measured levels of the CCR5 ligands MIP-1α, MIP-1β, and RANTES in supernatants of RAPA-treated PBMC cultures. PBMCs from four donors were cultured in the presence of IL-2 and RAPA for 10 days. […] Among the different donors, RAPA-treated cultures contained 6-39-fold higher levels of MIP-1α than untreated cultures. Similarly, MIP-1β levels were increased 17-47-fold in the presence of RAPA as compared with untreated controls. […] Chemokine results obtained in two of the donors, showing disparity of RANTES levels in the presence of RAPA, are depicted in FIG. 8A.
The effect of RAPA on MIP-1β protein levels provided information regarding the mechanism by which RAPA increases β-chemokine levels. To this end, stimulated PBMCs from two normal donors and from a CCR5-null donor were cultured in the presence of RAPA as in previous experiments. MIP-1β levels in supernatants were evaluated on day 10. Representative results obtained in one of the normal donors are shown next to the results obtained on the CCR5-null donor (FIG. 8B).
PBMCs from a healthy donor were cultured in the presence of IL-2 and Rapamycin. On day 7, chemokines content in the supernatant was measured by ELISA and cell viability was determined by the MTT assay.

The test system of series [9] is HIV-1 SF 162. The series is described as follows: Antiviral activity of RAPA in monocyte-derived macrophages. It is filed as cell-based. Conditions: Human immunodeficiency virus 1, Macrophage; 0.01 nM RAPA; data not shown.
Series [10] in a line: Tolerability of Rapamycin in healthy volunteers. It is filed as in vivo, human. The following applies: 5 healthy volunteers, 2 mg/day after 6 mg loading dose, 14 days. As to the method:
HIV-1 has been shown in most instances to use the chemokine receptor, CCR5, as a co-receptor for entry into macrophages and CD4 lymphocytes. The natural ligands for the CCR5 co-receptor are proteins called β-Chemokines. […] To assess the activity of β-Chemokine production levels and its effects on CCR5 receptors in vivo an open-labeled, non-randomized observational trial was performed in which 5 healthy volunteers were given 2 mg/day of Rapamycin, following a 6 mg loading dose, for 14 days. Peripheral blood for determining β-Chemokines was obtained at the screening visit, days 7 and 14 of the Rapamycin dosing, and at day 28 (which was two weeks following the last dose of Rapamycin). All 5 subjects completed the study and Rapamycin was well-tolerated.

For series [11], the system named is five R5 strains of HIV-1. Put plainly: Antiviral activity of low concentrations of RAPA in PBMCs, panel of R5 strains. It is filed as cell-based. Conditions: Human immunodeficiency virus 1, PBMC. As to the method: (§5) The following viruses were used in infection experiments, including HIV-1 IIIb, HIV-1 ADA, HIV-1 BaL, HIV-1 JRFL, HIV-1 JRCSF, and HIV-1 SF162. HIV-1 IIIb is a T cell line-adapted lab strain that uses CXCR4 for entry into cells, whereas the rest are isolates that use CCR5.
as §4
RAPA at 0.01 nM inhibited R5 HIV-1 by 10-64% depending on the strains, whereas 0.1 nM RAPA inhibited virus replication by 15-85%. At 1 nM RAPA, all R5 viruses were inhibited by >90%.

The test system of series [12] is HIV-1 ADA. The series is described as follows: Antiviral activity of RAPA in PBMCs (p24). It is filed as cell-based. The following applies: Human immunodeficiency virus 1, PBMC. The method, then:
as §5, §4
(§6) The antiviral activity of RAPA was assayed in PBMCs that had been cultured in the presence of RAPA for 7 days before infection. Cells were infected with the X4 HIV-1 IIIb and the R5 HIV-1 ADA strains. Infected cells were cultured in the presence of RAPA (same concentration as during pretreatment) for 7 additional days, during which time virus replication and cell viability were measured. […]

In series [13] the test system is HIV-1 IIIb. Put plainly: Antiviral activity of RAPA in PBMCs (p24). It is filed as cell-based. Conditions: Human immunodeficiency virus 1, IIIB, PBMC. As to the method:
as §5, §4, §6

[14] abbreviates: IL-2 and RAPA for 10 days, four donors.

As to `Cc1c(C)c2c(c(C)c1O)CC[C@@](C)(CCC[C@H](C)CCC[C@H](C)CCCC(C)C)O2` [Vitamin E, alpha-tocopherol], the “cell viability and cell proliferation” value in series [1] is “Neither cell viability nor cell proliferation was affected”. Besides, the “virus production, mean Log p24” value in series [2] (day 14, 9 patients, log of p24 pg/ml, absence of VE 3.58, p=0.016) was 2.06. In addition, the “cultures with positive virus isolation” value in [2] (day 14, untreated 9/10) was 7/10. In addition, the “levels of β-chemokines” value in series [3] is given as “increased levels of β-chemokines”.
As usually defined, the inhibition is how much of the control response was suppressed. For the compound `CO[C@H]1C[C@@H]2CC[C@@H](C)[C@@](O)(O2)C(=O)C(=O)N2CCCC[C@H]2C(=O)O[C@H]([C@H](C)C[C@@H]2CC[C@@H](O)[C@H](OC)C2)CC(=O)[C@H](C)/C=C(\C)[C@@H](O)[C@@H](OC)C(=O)[C@H](C)C[C@H](C)/C=C/C=C/C=C/1C` [RAPA, rapamycin], the therapeutic through levels in series [4] (daily 2 mg) is 9.3 ± 4.4 nM; in [4] (daily 5 mg), 18.9 ± 8 nM. In addition, in series [5], the “RAPA concentrations at which cell viability was reduced” value is more than 10 nM. Besides, the “drug concentrations at which reduced proliferation was detected” value in series [6] (IL-2, MTT assay on day 7) is not below 1 nM. The “drug concentrations at which drug toxicity was observed” value in series [6] (data not shown) is “above 1 nM”. The “inhibition of virus replication” value in series [7] (1 nM RAPA added after infection, no RAPA during differentiation, day 14, two donors) is reported as approximately 80%. Moreover, the inhibition at 0.001 µM in series [7] (Human immunodeficiency virus 1, Macrophage, 336 h, 1 nM RAPA added after infection, no RAPA during differentiation, day 14, two donors, read-out: inhibition of virus replication) is approximately 60%; in series [11] (read-out: inhibition of all R5 viruses), more than 90%. The inhibition at 10 pM in series [7] (Human immunodeficiency virus 1, Macrophage, 0.01 nM RAPA, data not shown) is 64%; in [9] it was 45%; in [11] (read-out: inhibition of R5 HIV-1) it was 10 to 64%. Moreover, the “inhibition of virus production” value in series [7] (RAPA 0.1-100 nM, day 14, monocytes pretreated 5 days) is recorded as 70-95%. In [8] (CCR5-null donor, day 10), the MIP-1β levels increase turned out to be 1.2 fold. Also, the “MIP-1α levels, RAPA-treated versus untreated cultures” value in series [8] (setting [14]) is listed as 6-39 fold. Also, in series [8] (setting [14]), the “MIP-1β levels increase compared with untreated controls” value is 17-47 fold. In series [8] (normal donor, day 10), the “MIP-1β protein increase compared with RAPA-untreated control” value is 9.3 fold. For the same compound, the tolerability result in series [10] is given as “well-tolerated”. Moreover, in series [11] (read-out: inhibition of virus replication (R5 HIV-1)), the inhibition at 0.0001 µM lay in the range of 15 to 85%. For the same compound, the inhibition at 0.01 µM in series [12] (10 nM RAPA, average of seven experiments (range of 88-97%)) was 91%; in series [13] (10 nM RAPA (range of 5-25%)), 13.5%. Also, the inhibition at 0.1 µM in [12] (100 nM RAPA, seven experiments (range of 92-99%)) was determined as 94%; in series [13] (100 nM RAPA (range 29-60%)), 32%.
